# Results published in patent US20110178396A1, “Nicotinamide Derivatives” (CRC FOR BIOMEDICAL IMAGING DEVELOPMENT LTD., priority 2008, published 2011).
# Tested on: B16F0 melanoma tumour
# Test: Biodistribution in B16 melanoma bearing mice
# Type: in vivo, C57BL/6J mice
# Conditions: for Organ distribution Intestine / Organ distribution Liver / Organ distribution Spleen / Organ distribution Stomach / Organ distribution Thyroid / Organ distribution Tumour: B16F0 tumour, mean ± S.D.
# Method: Animal experiments were performed in compliance with the NHMRC Australian Code of Practice for the care and use of animals for scientific purposes. Female C57BL/6J black and BALB/c nude albino mice of 5 weeks age were obtained from the Animal Resources Centre, Western Australia. B16F0 murine melanoma cells were originally obtained from European Collection of Cell Cultures (UK) and A375 human amelanotic melanoma cells were originally obtained from American Type Culture Collection (USA). Before transplantation, B16F0 and A375 melanoma cells were maintained as a monolayer in RPMI culture medium supplemented with 10% foetal calf serum and antibiotics and passaged with trypsinisation. Early passages were frozen and stored in liquid nitrogen. Cells were passaged to P=10 and then discarded. Frozen aliquots were grown in a monolayer culture to between 80-95% confluence and for transplantation were trypsinised and washed with Ca^2+ and Mg^2+ free phosphate buffered saline (PBS). For inoculation, B16F0 melanoma cells were resuspended in Ca^2+ and Mg^2+ free PBS at 3 or 5×10^6 viable cells per ml and 0.1 ml was subcutaneously injected at the left flank of 6-7 weeks old C57BL/6J mice. Eleven days later, tumours could be palpated in >98% of inoculated animals. A375 human melanoma cells were resuspended at 1×10^7 viablecells per ml and 0.1 ml was injected subcutaneously at the left flank of 6 weeks old BALB/c nude mice and 25-26 days later tumours could be palpated with ˜60% of inoculated animals developing tumours.
# Eleven days (B16F0 melanoma) and 25 days (A375 human melanoma) after tumour transplantation, the [^18F]nicotinamides (0.5-1.5 MBq, 100 μl) and [^123I]nicotinamide (0.37-0.74 MBq, 100 μl) derivatives were injected intravenously via the tail vein into mice (15-18 g). Time points of 1, 3, 6, 24, 48, 72 h after injection were chosen for determining the distribution of each compound in various organs and tissues for the iodine-123 labelled compounds and between 15 min and 6 hours (e.g. 15 min, 30 min, 1 h, 2 h, 4 h or 6 h) were chosen for the ^18F-labelled compounds. At defined times post injection, groups of mice (n=5) were weighed, sacrificed by CO2 administration followed by cervical dislocation and dissected. Selected organs were weighed and their radioactivity measured with a γ-counter. The remaining activity in the carcass was also determined in order to obtain the total activity in the mouse at defined time points. The fraction of injected activity (% ID) in the organ was calculated by comparison with suitable dilutions of the injected dose. Then, the radioactivity concentration in the organ (% ID/g) was found by dividing the % ID for each organ by the weight of the organ.
# [1] = B16 tumour, C57BL/6J mice, 1 h, mean ± SD, n = 5
# [2] = B16 tumour, C57BL/6J mice, 6 h, mean ± SD, n = 5
# [3] = B16 tumour, C57BL/6J mice, 24 h, mean ± SD, n = 5
# [4] = B16 melanoma bearing mice, 15 min
compound,measurement,setting,value
"O=C(c1cncc(I)c1)N1CCN(Cc2ccccc2)CC1 [[^123I]20, (4-Benzylpiperazin-1-yl)(5-iodopyridin-3-yl)methanone]",Organ distribution Intestine,"C57BL/6J mice, 1 h, n = 5",58 ± 2 % ID/organ
same,Organ distribution Liver,"C57BL/6J mice, 1 h, n = 5",3.6 ± 0.9 % ID/organ
same,Organ distribution Spleen,"C57BL/6J mice, 1 h, n = 5",0.05 ± 0.01 % ID/organ
same,Organ distribution Stomach,"C57BL/6J mice, 1 h, n = 5",1.7 ± 0.6 % ID/organ
same,Organ distribution Thyroid,"C57BL/6J mice, 1 h, n = 5",0.30 ± 0.08 % ID/organ
same,Organ distribution Tumour,"C57BL/6J mice, 1 h, n = 5",2.6 ± 1.0 % ID/organ
same,Organ distribution Intestine,"C57BL/6J mice, 6 h, n = 5",30 ± 3 % ID/organ
same,Organ distribution Liver,"C57BL/6J mice, 6 h, n = 5",1.9 ± 0.4 % ID/organ
same,Organ distribution Spleen,"C57BL/6J mice, 6 h, n = 5",0.04 ± 0.02 % ID/organ
same,Organ distribution Stomach,"C57BL/6J mice, 6 h, n = 5",4 ± 3 % ID/organ
same,Organ distribution Thyroid,"C57BL/6J mice, 6 h, n = 5",1.1 ± 0.4 % ID/organ
same,Organ distribution Tumour,"C57BL/6J mice, 6 h, n = 5",1.7 ± 0.5 % ID/organ
same,Organ distribution Intestine,"C57BL/6J mice, 24 h, n = 5",0.4 ± 0.1 % ID/organ
same,Organ distribution Liver,"C57BL/6J mice, 24 h, n = 5",0.13 ± 0.04 % ID/organ
same,Organ distribution Spleen,"C57BL/6J mice, 24 h, n = 5",0.00 ± 0.00 % ID/organ
same,Organ distribution Stomach,"C57BL/6J mice, 24 h, n = 5",0.07 ± 0.02 % ID/organ
same,Organ distribution Thyroid,"C57BL/6J mice, 24 h, n = 5",1.4 ± 0.6 % ID/organ
same,Organ distribution Tumour,"C57BL/6J mice, 24 h, n = 5",0.36 ± 0.07 % ID/organ
same,tumour standardized uptake value (SUVt),"B16 tumour, C57BL/6J mice, 1 h",1.5 ± 0.4
same,Uptake Lung,[1],0.90 ± 0.06 % ID/g
same,uptake BLOOD,[1],0.89 ± 0.07 % ID/g
same,uptake BRAIN,[1],0.20 ± 0.02 % ID/g
same,uptake HEART,[1],0.49 ± 0.03 % ID/g
same,uptake KIDNEY,[1],4.2 ± 0.6 % ID/g
same,uptake LIVER,[1],3.6 ± 0.9 % ID/g
same,uptake TUMOUR,[1],6.0 ± 1.6 % ID/g
same,tumour standardized uptake value (SUVt),"B16 tumour, C57BL/6J mice, 6 h",1.7 ± 0.5
same,Uptake Lung,[2],0.46 ± 0.13 % ID/g
same,uptake BLOOD,[2],0.60 ± 0.17 % ID/g
same,uptake BRAIN,[2],0.05 ± 0.01 % ID/g
same,uptake HEART,[2],0.24 ± 0.08 % ID/g
same,uptake KIDNEY,[2],2.4 ± 0.4 % ID/g
same,uptake LIVER,[2],2.2 ± 0.6 % ID/g
same,uptake TUMOUR,[2],3.9 ± 0.9 % ID/g
same,tumour standardized uptake value (SUVt),"B16 tumour, C57BL/6J mice, 24 h",9 ± 2
same,Uptake Lung,[3],0.03 ± 0.01 % ID/g
same,uptake BLOOD,[3],0.04 ± 0.01 % ID/g
same,uptake BRAIN,[3],0.001 % ID/g
same,uptake HEART,[3],0.02 ± 0.01 % ID/g
same,uptake KIDNEY,[3],0.08 ± 0.01 % ID/g
same,uptake LIVER,[3],0.12 ± 0.02 % ID/g
same,uptake TUMOUR,[3],1.0 ± 0.2 % ID/g
"CCN(CC)CCNC(=O)c1cccnc1F [[^18F]MEL6, 2-Fluoro-N-[2-(diethylamino)ethyl]nicotinantide]",uptake BLOOD,[4],2.8 % ID/g
same,uptake BONE,[4],4.8 % ID/g
same,uptake BRAIN,[4],6.2 % ID/g
same,uptake EYES,[4],36.7 % ID/g
same,uptake GIT,[4],7.8 % ID/g
same,uptake HEART,[4],3.7 % ID/g
same,uptake KIDNEY,[4],16.4 % ID/g
same,uptake LIVER,[4],12.2 % ID/g
same,uptake LUNGS,[4],5.0 % ID/g
same,uptake MUSCLE,[4],4.0 % ID/g
same,uptake SKIN,[4],2.7 % ID/g
same,uptake SPLEEN,[4],11.8 % ID/g
same,uptake STOMACH,[4],14.7 % ID/g
same,uptake THYROID,[4],4.5 % ID/g
same,uptake TUMOUR,[4],10.6 % ID/g
same,uptake BLOOD,"B16 melanoma bearing mice, 1 h",0.9 % ID/g
same,uptake BONE,"B16 melanoma bearing mice, 1 h",3.4 % ID/g
same,uptake BRAIN,"B16 melanoma bearing mice, 1 h",1.6 % ID/g
same,uptake EYES,"B16 melanoma bearing mice, 1 h",38.0 % ID/g
same,uptake GIT,"B16 melanoma bearing mice, 1 h",7.1 % ID/g
same,uptake HEART,"B16 melanoma bearing mice, 1 h",1.2 % ID/g
same,uptake KIDNEY,"B16 melanoma bearing mice, 1 h",4.0 % ID/g
same,uptake LIVER,"B16 melanoma bearing mice, 1 h",4.9 % ID/g
same,uptake LUNGS,"B16 melanoma bearing mice, 1 h",1.5 % ID/g
same,uptake MUSCLE,"B16 melanoma bearing mice, 1 h",1.2 % ID/g
same,uptake SKIN,"B16 melanoma bearing mice, 1 h",1.0 % ID/g
same,uptake SPLEEN,"B16 melanoma bearing mice, 1 h",9.2 % ID/g
same,uptake STOMACH,"B16 melanoma bearing mice, 1 h",6.8 % ID/g
same,uptake THYROID,"B16 melanoma bearing mice, 1 h",2.2 % ID/g
same,uptake TUMOUR,"B16 melanoma bearing mice, 1 h",14.6 % ID/g
same,uptake BLOOD,"B16 melanoma bearing mice, 3 h",0.2 % ID/g
same,uptake BONE,"B16 melanoma bearing mice, 3 h",4.6 % ID/g
same,uptake BRAIN,"B16 melanoma bearing mice, 3 h",0.4 % ID/g
same,uptake EYES,"B16 melanoma bearing mice, 3 h",36.3 % ID/g
same,uptake GIT,"B16 melanoma bearing mice, 3 h",7.1 % ID/g
same,uptake HEART,"B16 melanoma bearing mice, 3 h",0.3 % ID/g
same,uptake KIDNEY,"B16 melanoma bearing mice, 3 h",0.8 % ID/g
same,uptake LIVER,"B16 melanoma bearing mice, 3 h",1.9 % ID/g
same,uptake LUNGS,"B16 melanoma bearing mice, 3 h",0.3 % ID/g
same,uptake MUSCLE,"B16 melanoma bearing mice, 3 h",0.3 % ID/g
same,uptake SKIN,"B16 melanoma bearing mice, 3 h",0.2 % ID/g
same,uptake SPLEEN,"B16 melanoma bearing mice, 3 h",2.5 % ID/g
same,uptake STOMACH,"B16 melanoma bearing mice, 3 h",1.9 % ID/g
same,uptake THYROID,"B16 melanoma bearing mice, 3 h",2.1 % ID/g
same,uptake TUMOUR,"B16 melanoma bearing mice, 3 h",17.3 % ID/g
same,uptake BLOOD,"B16 melanoma bearing mice, 6 h",0.1 % ID/g
same,uptake BONE,"B16 melanoma bearing mice, 6 h",5.6 % ID/g
same,uptake BRAIN,"B16 melanoma bearing mice, 6 h",0.1 % ID/g
same,uptake EYES,"B16 melanoma bearing mice, 6 h",27.4 % ID/g
same,uptake GIT,"B16 melanoma bearing mice, 6 h",3.6 % ID/g
same,uptake HEART,"B16 melanoma bearing mice, 6 h",0.2 % ID/g
same,uptake KIDNEY,"B16 melanoma bearing mice, 6 h",0.2 % ID/g
same,uptake LIVER,"B16 melanoma bearing mice, 6 h",1.0 % ID/g
same,uptake LUNGS,"B16 melanoma bearing mice, 6 h",0.2 % ID/g
same,uptake MUSCLE,"B16 melanoma bearing mice, 6 h",0.2 % ID/g
same,uptake SKIN,"B16 melanoma bearing mice, 6 h",0.9 % ID/g
same,uptake SPLEEN,"B16 melanoma bearing mice, 6 h",0.5 % ID/g
same,uptake STOMACH,"B16 melanoma bearing mice, 6 h",0.7 % ID/g
same,uptake THYROID,"B16 melanoma bearing mice, 6 h",3.2 % ID/g
same,uptake TUMOUR,"B16 melanoma bearing mice, 6 h",4.8 % ID/g
